Results taken from PubChem BioAssay AID256 (DTP/NCI, 2004).
Where “and” joins values, the source holds several entries; their conditions need not be identical. Identical values can stand only once. Toxic doses and inconclusive results are not listed.

Test system: CD2F1 mice, L1210 leukemia ip, survival T/C
Assay: NCI In Vivo Anticancer Drug Screen. Data for tumor model L1210 Leukemia (intraperitoneal) in CD2F1 (CDF1) mice
Conditions: higher = longer survival
Method in brief: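 In this screen, transplantable tumors were grown in mice given either the compound or its vehicle. Results were expressed as the treated measurement relative to the control measurement.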

[1] = endpoint: mean survival time, dose: 100.0 mg/kg/injection, schedule: Q01DX009 (ip), vehicle: saline with Tween-80
[2] = endpoint: mean survival time, dose: 200.0 mg/kg/injection, schedule: Q01DX009 (ip), vehicle: saline with Tween-80
[3] = endpoint: mean survival time, dose: 400.0 mg/kg/injection, schedule: Q01DX009 (ip), vehicle: saline with Tween-80
[4] = endpoint: mean survival time, dose: 50.0 mg/kg/injection, schedule: Q01DX009 (ip), vehicle: saline with Tween-80
[5] = endpoint: mean survival time, dose: 100.0 mg/kg/injection, schedule: Q04DX003 (ip), vehicle: saline with Tween-80
[6] = endpoint: mean survival time, dose: 200.0 mg/kg/injection, schedule: Q04DX003 (ip), vehicle: saline with Tween-80
[7] = endpoint: mean survival time, dose: 100.0 mg/kg/injection, schedule: Q04DX002 (ip), vehicle: saline with Tween-80
[8] = endpoint: mean survival time, dose: 200.0 mg/kg/injection, schedule: Q04DX002 (ip), vehicle: saline with Tween-80

O=C(CF)[O][Sb]([O]C(=O)CF)([c]1ccccc1)([c]1ccccc1)[c]1ccccc1
T/C (endpoint: mean survival time, dose: 5.0 mg/kg/injection, schedule: Q01DX009 (ip), vehicle: saline with Tween-80): 105 % of control | T/C (endpoint: mean survival time, dose: 10.0 mg/kg/injection, schedule: Q01DX009 (ip), vehicle: saline with Tween-80): 108 % of control

COC(=O)C1=C(C)NC(=O)NC1c1ccccc1 (configuration not stated)
T/C [1]: 95 % of control | T/C [2]: 97 % of control | T/C [3]: 97 % of control

CSc1nc(N)n2nccc2n1
T/C (endpoint: median survival time, dose: 50.0 mg/kg/injection, schedule: Q01DX005 (ip), vehicle: saline): 102 % of control | T/C (endpoint: median survival time, dose: 100.0 mg/kg/injection, schedule: Q01DX005 (ip), vehicle: saline): 95 % of control | T/C (endpoint: median survival time, dose: 200.0 mg/kg/injection, schedule: Q01DX005 (ip), vehicle: saline): 95 % of control

CN(C)CCN(Cc1ccc(Cl)cc1)c1ccccn1
T/C (endpoint: mean survival time, dose: 3.13 mg/kg/injection, schedule: Q01DX009 (ip), vehicle: saline with Tween-80): 95 % of control | T/C (endpoint: mean survival time, dose: 6.25 mg/kg/injection, schedule: Q01DX009 (ip), vehicle: saline with Tween-80): 109 % of control

O=C1CCCCC1C1(O)C(=O)Nc2ccccc21 (configuration not stated)
T/C [4]: 91 % of control | T/C [1]: 95 % of control | T/C [2]: 87 % of control

CC/C(=N/NS(=O)(=O)c1ccc(C)cc1)C(=O)O
T/C (endpoint: mean survival time, dose: 12.5 mg/kg/injection, schedule: Q01DX009 (ip), vehicle: Klucel (hydroxypropylcellulose) (HPC)): 101 % of control | T/C (endpoint: mean survival time, dose: 25.0 mg/kg/injection, schedule: Q01DX009 (ip), vehicle: Klucel (hydroxypropylcellulose) (HPC)): 98 % of control | T/C (endpoint: mean survival time, dose: 50.0 mg/kg/injection, schedule: Q01DX009 (ip), vehicle: Klucel (hydroxypropylcellulose) (HPC)): 91 % of control | T/C (endpoint: mean survival time, dose: 100.0 mg/kg/injection, schedule: Q01DX009 (ip), vehicle: Klucel (hydroxypropylcellulose) (HPC)): 96 % of control | T/C (endpoint: mean survival time, dose: 200.0 mg/kg/injection, schedule: Q01DX009 (ip), vehicle: Klucel (hydroxypropylcellulose) (HPC)): 93 % of control | T/C (endpoint: mean survival time, dose: 400.0 mg/kg/injection, schedule: Q01DX009 (ip), vehicle: Klucel (hydroxypropylcellulose) (HPC)): 91 % of control

OC(CI)C(O)C(O)C(O)CI (configuration not stated)
T/C (endpoint: mean survival time, dose: 25.0 mg/kg/injection, schedule: Q01DX009 (oral), vehicle: other): 106 % of control | T/C (endpoint: mean survival time, dose: 50.0 mg/kg/injection, schedule: Q01DX009 (oral), vehicle: other): 106 % of control | T/C (endpoint: mean survival time, dose: 100.0 mg/kg/injection, schedule: Q01DX009 (oral), vehicle: other): 95 % of control | T/C (endpoint: mean survival time, dose: 200.0 mg/kg/injection, schedule: Q01DX009 (oral), vehicle: other): 107 % of control | T/C (endpoint: mean survival time, dose: 400.0 mg/kg/injection, schedule: Q01DX009 (oral), vehicle: other): 107 % of control | T/C (endpoint: mean survival time, dose: 800.0 mg/kg/injection, schedule: Q01DX009 (oral), vehicle: other): 124 % of control

COC(=O)CC(NC(=O)C(CSC(c1ccccc1)(c1ccccc1)c1ccccc1)NC(c1ccccc1)(c1ccccc1)c1ccccc1)C(=O)OC (configuration not stated)
T/C (endpoint: mean survival time, dose: 50.0 mg/kg/injection, schedule: Q01DX009 (ip), vehicle: saline): 95 % of control | T/C (endpoint: mean survival time, dose: 100.0 mg/kg/injection, schedule: Q01DX009 (ip), vehicle: saline): 92 % of control | T/C (endpoint: mean survival time, dose: 200.0 mg/kg/injection, schedule: Q01DX009 (ip), vehicle: saline): 89 % of control | T/C (endpoint: mean survival time, dose: 400.0 mg/kg/injection, schedule: Q01DX009 (ip), vehicle: saline): 91 % of control

c1ccc2nc(C3CO3)cnc2c1 (configuration not stated)
T/C (endpoint: mean survival time, dose: 50.0 mg/kg/injection, schedule: Q04DX003 (ip), vehicle: saline with Tween-80): 100 % of control | T/C [5]: 96 % of control | T/C [6]: 97 % of control

O=C(O)C1C2C=CC3(CN(CCc4ccccc4)C(=O)C13)O2 (configuration not stated)
T/C [7]: 95 % of control | T/C [8]: 95 % of control | T/C (endpoint: mean survival time, dose: 400.0 mg/kg/injection, schedule: Q04DX002 (ip), vehicle: saline with Tween-80): 103 % of control

N#C/C(=C\c1ccc(-c2ccccc2)cc1)c1ccc(Cl)cc1
T/C [6]: 87 % of control

Clc1ccc(OCCCCCNCCSSCCNCCCCCOc2ccc(Cl)cn2)nc1
T/C (endpoint: mean survival time, dose: 75.0 mg/kg/injection, schedule: Q01DX001 (ip), vehicle: other): 101 % of control | T/C (endpoint: mean survival time, dose: 150.0 mg/kg/injection, schedule: Q01DX001 (ip), vehicle: other): 103 % of control | T/C (endpoint: mean survival time, dose: 300.0 mg/kg/injection, schedule: Q01DX001 (ip), vehicle: other): 106 % of control

CCCCCCCCCCCC(=O)CCCC
T/C (endpoint: mean survival time, dose: 100.0 mg/kg/injection, schedule: Q01DX009 (ip), vehicle: other): 98 % of control | T/C (endpoint: mean survival time, dose: 100.0 mg/kg/injection, schedule: Q04DX003 (ip), vehicle: other): 102 % of control | T/C (endpoint: mean survival time, dose: 200.0 mg/kg/injection, schedule: Q01DX009 (ip), vehicle: other): 104 % of control | T/C (endpoint: mean survival time, dose: 200.0 mg/kg/injection, schedule: Q04DX003 (ip), vehicle: other): 91 % of control | T/C (endpoint: mean survival time, dose: 400.0 mg/kg/injection, schedule: Q01DX009 (ip), vehicle: other): 106 % of control | T/C (endpoint: mean survival time, dose: 400.0 mg/kg/injection, schedule: Q04DX003 (ip), vehicle: other): 97 % of control

O=C(Oc1ccn(C2OC(CO)C(O)C2O)c(=O)c1)C12CC3CC(CC(C3)C1)C2 (configuration not stated)
T/C (endpoint: median survival time, dose: 20.0 mg/kg/injection, schedule: Q01DX009 (ip), vehicle: saline + Tween-80 + alcohol): 153 % of control | T/C (endpoint: median survival time, dose: 30.0 mg/kg/injection, schedule: Q01DX009 (ip), vehicle: saline + Tween-80 + alcohol): 170 % of control | T/C (endpoint: median survival time, dose: 45.0 mg/kg/injection, schedule: Q01DX009 (ip), vehicle: saline + Tween-80 + alcohol): 158 % of control

CC(C)(C)N1CCc2cc3c(cc2C1)OCO3
T/C (endpoint: mean survival time, dose: 50.0 mg/kg/injection, schedule: Q01DX001 (ip), vehicle: saline): 100 % of control | T/C (endpoint: mean survival time, dose: 75.0 mg/kg/injection, schedule: Q01DX001 (ip), vehicle: saline): 103 % of control | T/C (endpoint: mean survival time, dose: 100.0 mg/kg/injection, schedule: Q01DX001 (ip), vehicle: saline): 96 % of control and 97 % of control

c1ccc(C[n+]2cccc3ccccc32)cc1
T/C (endpoint: mean survival time, dose: 5.0 mg/kg/injection, schedule: Q04DX003 (ip), vehicle: saline with Tween-80): 101 % of control | T/C (endpoint: mean survival time, dose: 10.0 mg/kg/injection, schedule: Q04DX003 (ip), vehicle: saline with Tween-80): 98 % of control | T/C (endpoint: mean survival time, dose: 20.0 mg/kg/injection, schedule: Q04DX003 (ip), vehicle: saline with Tween-80): 98 % of control

Nc1nc(N)nc(N)n1
T/C [1]: 95 % of control | T/C [5]: 97 % of control | T/C [2]: 94 % of control | T/C [6]: 105 % of control | T/C [3]: 95 % of control | T/C (endpoint: mean survival time, dose: 400.0 mg/kg/injection, schedule: Q04DX003 (ip), vehicle: saline with Tween-80): 97 % of control | T/C (endpoint: mean survival time, dose: 800.0 mg/kg/injection, schedule: Q01DX009 (ip), vehicle: saline with Tween-80): 90 % of control

CC(C)C(O)c1ccccc1 (configuration not stated)
T/C (endpoint: mean survival time, dose: 12.5 mg/kg/injection, schedule: Q01DX009 (ip), vehicle: saline with Tween-80): 103 % of control | T/C (endpoint: mean survival time, dose: 25.0 mg/kg/injection, schedule: Q01DX005 (ip), vehicle: saline with Tween-80): 92 % of control | T/C (endpoint: mean survival time, dose: 25.0 mg/kg/injection, schedule: Q01DX009 (ip), vehicle: saline with Tween-80): 106 % of control | T/C (endpoint: mean survival time, dose: 50.0 mg/kg/injection, schedule: Q01DX005 (ip), vehicle: saline with Tween-80): 95 % of control | T/C [4]: 95 % of control | T/C (endpoint: mean survival time, dose: 50.0 mg/kg/injection, schedule: Q04DX002 (ip), vehicle: saline with Tween-80): 108 % of control | T/C (endpoint: mean survival time, dose: 100.0 mg/kg/injection, schedule: Q01DX005 (ip), vehicle: saline with Tween-80): 88 % of control | T/C [1]: 88 % of control | T/C [7]: 101 % of control | T/C [8]: 89 % of control

CC(=O)c1ccc([NH-])c([NH-])c1.[Cl][Pt+2][Cl]
T/C (endpoint: mean survival time, dose: 2.5 mg/kg/injection, schedule: Q01DX009 (ip), vehicle: distilled water + Tween-80): 102 % of control | T/C (endpoint: mean survival time, dose: 5.0 mg/kg/injection, schedule: Q01DX009 (ip), vehicle: distilled water + Tween-80): 104 % of control | T/C (endpoint: mean survival time, dose: 10.0 mg/kg/injection, schedule: Q01DX009 (ip), vehicle: distilled water + Tween-80): 109 % of control and 112 % of control | T/C (endpoint: mean survival time, dose: 20.0 mg/kg/injection, schedule: Q01DX009 (ip), vehicle: distilled water + Tween-80): 114 % of control

CN(C)N=Nc1ccccc1C(=O)NCC#N
T/C (endpoint: mean survival time, dose: 18.75 mg/kg/injection, schedule: Q01DX009 (ip), vehicle: Klucel (hydroxypropylcellulose) (HPC)): 100 % of control and 103 % of control | T/C (endpoint: mean survival time, dose: 37.5 mg/kg/injection, schedule: Q01DX009 (ip), vehicle: Klucel (hydroxypropylcellulose) (HPC)): 106 % of control and 107 % of control | T/C (endpoint: mean survival time, dose: 75.0 mg/kg/injection, schedule: Q01DX009 (ip), vehicle: Klucel (hydroxypropylcellulose) (HPC)): 112 % of control | T/C (endpoint: mean survival time, dose: 150.0 mg/kg/injection, schedule: Q01DX009 (ip), vehicle: Klucel (hydroxypropylcellulose) (HPC)): 91 % of control

CC(C)(C)C#C/C(=N\Nc1ccc([N+](=O)[O-])cc1[N+](=O)[O-])c1ccccc1
T/C (endpoint: mean survival time, dose: 100.0 mg/kg/injection, schedule: Q01DX001 (ip), vehicle: saline with Tween-80): 94 % of control | T/C (endpoint: mean survival time, dose: 200.0 mg/kg/injection, schedule: Q01DX001 (ip), vehicle: saline with Tween-80): 89 % of control | T/C (endpoint: mean survival time, dose: 400.0 mg/kg/injection, schedule: Q01DX001 (ip), vehicle: saline with Tween-80): 86 % of control
